Values belong to the molecule of their own block, whether it stands above or below them.
What was measured:
[1] = test system: Apt1 (DNA, aptamer) ACACGACGAGGGACGAGGAGTACTTGCCAACGATAACGTCGTTGGATCTGTCTGTGCCC; test: AuNP colorimetric (A650/A520); conditions: NaCl 36.7 mM added, water, room temperature
[2] = test system: Apt-T2 (DNA, aptamer) CGAGGGACGTTGCCAACGATAACGTCGTTGGAT; test: AuNP colorimetric (A650/A520); conditions: NaCl 36.7 mM added, water, room temperature
[3] = test system: Apt-M13 (DNA, aptamer) CGGGGGACGTTGCCAACGGTAACGTCGTTGGAT; test: AuNP colorimetric (A650/A520); conditions: NaCl 36.7 mM added, water, room temperature
[4] = test system: Apt-T1 (DNA, aptamer) CGAGGGACGAGGAGTACTTGCCAACGATAACGTCGTTGGAT; test: AuNP colorimetric (A650/A520); conditions: NaCl 36.7 mM added, water, room temperature
[5] = test system: Apt-M13 (DNA, aptamer) CGGGGGACGTTGCCAACGGTAACGTCGTTGGAT; test: fluorescence enhancement of dye; conditions: water, room temperature; aptamer 50 nM stock, 1X SGI
[6] = test system: Apt-M15 (DNA, aptamer) CGAGGGACGTTGCCAACGATAAGGTGGTTGGAT; test: AuNP colorimetric (A650/A520); conditions: NaCl 36.7 mM added; water, room temperature; DEX titration
[7] = test system: Apt-M12 (DNA, aptamer) CGAGGGACGTTGCCAACGGTAACGTGGTTGGAT; test: AuNP colorimetric (A650/A520); conditions: NaCl 36.7 mM added; water, room temperature; DEX titration
[8] = test system: Apt-M9 (DNA, aptamer) CGAGGGACGTTGGCAACGGTAACGTCGTTGGAT; test: AuNP colorimetric (A650/A520); conditions: NaCl 36.7 mM added; water, room temperature; DEX titration
[9] = test system: Apt-M11 (DNA, aptamer) CGAGGGACGTTGCCAACGGTAAGGTCGTTGGAT; test: AuNP colorimetric (A650/A520); conditions: NaCl 36.7 mM added; water, room temperature; DEX titration
[10] = test system: FAM-Apt1 (DNA, aptamer) ACACGACGAGGGACGAGGAGTACTTGCCAACGATAACGTCGTTGGATCTGTCTGTGCCC; test: graphene oxide fluorescence, saturation fit; conditions: water, 37 °C 2 h; aptamer 10-250 nM varied, DEX 1.5 μM fixed; GO:aptamer mass 200:1
[11] = test system: FAM-Apt-M13 (DNA, aptamer) CGGGGGACGTTGCCAACGGTAACGTCGTTGGAT; test: graphene oxide fluorescence, saturation fit; conditions: water, 37 °C 2 h; aptamer 10-250 nM varied, DEX 1.5 μM fixed; GO:aptamer mass 200:1
[12] = test system: Apt-T3 (DNA, aptamer) TTGCCAACGATAACGTCGTTGGAT; test: AuNP colorimetric (A650/A520); conditions: NaCl 36.7 mM added; water, room temperature; DEX titration

- binding ([4]; 100 nmol/mL): yes
- binding ([1]; 100 nmol/mL analog tested): no
- binding ([2]; 100 nmol/mL analog tested): no
- binding ([3]; 50 nmol/mL analog tested): no
SMILES: CCCC1O[C@@H]2C[C@H]3[C@@H]4CCC5=CC(=O)C=C[C@]5(C)[C@H]4[C@@H](O)C[C@]3(C)[C@]2(C(=O)CO)O1 (stereo partly shown)

- binding [6]: yes
- binding [7]: yes
- binding ([4]; DEX titration): yes
- binding [8]: yes
- binding ([1]; DEX titration): yes
- binding [9]: yes
- Kd [10]: 441 ± 180 nM
- binding ([2]; DEX titration): yes
- binding ([3]; DEX titration): yes
- Kd [11]: 200 ± 93 nM
- binding [12]: yes
SMILES: C[C@@H]1C[C@H]2[C@@H]3CCC4=CC(=O)C=C[C@]4(C)[C@@]3(F)[C@@H](O)C[C@]2(C)[C@@]1(O)C(=O)CO

- binding ([1]; 100 nmol/mL analog tested): no
- binding ([2]; 100 nmol/mL analog tested): no
- binding ([3]; 50 nmol/mL analog tested): no
SMILES: O=C(N[C@H](CO)[C@H](O)c1ccc([N+](=O)[O-])cc1)C(Cl)Cl

More lines, now with the values behind:

SMILES: CC(=O)OCC(=O)[C@@]1(O)CC[C@H]2[C@@H]3CCC4=CC(=O)C=C[C@]4(C)[C@H]3C(=O)C[C@@]21C
- binding ([1]; 100 nmol/mL analog tested): no
- binding ([2]; 100 nmol/mL analog tested): no
- binding ([3]; 50 nmol/mL analog tested): no

SMILES: CCCN(CCCN(C)C)c1cc(C=C2Sc3ccccc3N2C)c2ccccc2[n+]1-c1ccccc1
- binding [5]: yes

SMILES: C[C@]12CCC(=O)C=C1CC[C@@H]1[C@@H]2[C@@H](O)C[C@@]2(C)[C@H]1CC[C@]2(O)C(=O)CO
- binding ([1]; 100 nmol/mL analog tested): no
- binding ([2]; 100 nmol/mL analog tested): no
- binding ([3]; 50 nmol/mL analog tested): no
